Measured values published in publication PMC6789589, “A Convenient Synthetic Method to Improve Immunogenicity of Mycobacterium tuberculosis Related T-Cell Epitope Peptides” (Vaccines, 2019).
Starred links: 1 amine or outer side, 2 acyl side, 3 side chain; linkers in the order of their positions; H or OH if unused. Positions of bridges follow the written chain, without caps; N, C: chain ends. Residues, ends and D or L forms follow the SMILES beside them. Chains are numbered I, II in the order given. *: point of attachment. X1 = O=C1CC([*:2])C(=O)N1CCCCCC(=O)[*:1]; Palmitoyl = CCCCCCCCCCCCCCCC(=O)*

Tests used:
MM6 cells = assay: Intracellular localization by confocal laser scanning microscopy; format: cell-based, human; conditions: Cf-labelled peptides, 60 min; P/A/I mix 5 µM, A(P)I 2.5 µM, pal-A(P)I 0.5 µM
Description: Cellular uptake and localization were visualized by confocal microscopy. MM6 cells were seeded (10^5 cells/well) one day prior to treatment on cover glass containing 24-well plates (Sarstedt, Nümbrecht, Germany). Lysosomes were stained by LysoTracker^TM Deep Red (Invitrogen, Carlsbad, CA, USA) for 30 min, followed by incubation with Cf-labeled peptides for 60 min. Subsequently, nuclei were stained by Hoechst 33342 solution (Thermo Scientific, Waltham, MA, USA). After each step, cells were washed three times with serum-free medium. Cells were fixed by 4% paraformaldehyde for 15 min and mounted to microscopy slides with Mowiol® 4–88. Imaging was performed on a Zeiss LSM 710 system with 40× oil immersion objective. Images were processed with ZEN lite software (Zeiss, Oberkochen, Germany).
Localization of the compounds was visualized by confocal laser scanning microscopy in MM6 cells (Figure 2c). Cells were incubated with Cf-labelled peptides for 60 min; moreover, nuclei and lysosomes were also stained. The peptide concentrations for P/A/I mix, A(P)I, and pal-A(P)I were 5, 2.5, and 0.5 µM, respectively. As different compound concentrations and laser intensities were also used to visualize the compounds showing low or high internalization, the presented images give information about the intracellular localization and are not to be considered in a quantitative manner.

antigen presenting cells = assay: Time course of cellular uptake by flow cytometry; format: cell-based; conditions: incubation 15 min to 16 h, FITC-positive cells and mean fluorescence intensity (Figure 3c)
Description: To further analyze the internalization of the compounds, the time course of the cellular uptake rate was measured by flow cytometry. […] The internalization rate of pal-A(P)I conjugate was very fast.
Figure 3 Detailed study on the cellular uptake by antigen presenting cells and the time course of internalization. Fluorescence intensity of compound treated cells was analyzed by flow cytometry (a) with or without trypsinization, and (b) in the presence or absence of trypan blue. No significant differences were observed after eliminating the fluorescent signal from adsorbed peptides or conjugates. (c) To study the time course of internalization, different incubation periods (15 min, 1 h, 3 h, 6 h, and 16 h) were applied, and the intracellular fluorescence intensity was measured. (d) The viability of compound-treated cells was compared to untreated control cells, and relative viabilities are presented. The viability of the control cells was always > 85% (results are represented as mean ± SEM, n = 3).

[1] = system: MonoMac6 human monocytes (MM6); assay: Cellular uptake (internalization) by flow cytometry in MonoMac6; conditions: Cf-labelled compounds, MM6, 2.5 µM, 2 h, flow cytometry histograms (Figure S1)
Description: Internalization of the compounds was measured in the MonoMac6 (MM6) human monocytic cell line [31] and on murine bone marrow-derived macrophages (BMDMs). MonoMac6 cells were maintained as an adherent culture in RPMI-1640 supplemented with 10% heat-inactivated fetal calf serum (FCS) L-glutamine (2 mM) and gentamicin (35 μM) at 37 °C in a humidified atmosphere containing 5% CO2. […] For the assay, cells were treated with peptides at 2.5 µM final concentration and were incubated for 2 hours. After centrifugation (1000 rpm, 5 min) and washing with serum-free RPMI medium, supernatant was removed and 100 μL 0.25% trypsin was added to the cells. After 5 min incubation, 0.8 mL 10% FCS/HPMI medium was added, then cells were washed and re-suspended in 0.3 mL HPMI medium. The intracellular fluorescence intensity of the cells was measured on a BD LSR II flow cytometer (BD Biosciences, San Jose, CA, USA) on channel FITC (emission at λ = 505 nm) and data were analyzed with FACSDiva 5.0 software (BD Biosciences, San Jose, CA, USA). External fluorescence quenching was performed by adding 10 µL of 0.04% trypan blue solution. […]
treated with the compounds, then cells were analyzed by flow cytometry. To quantify viable cells, […]
negative control, RPMI medium was used (b) and the FITC-negative population was determined on this

[2] = system: human erythrocyte suspension; assay: Hemolytic activity assay on human erythrocyte suspension; format: cell-based; conditions: 2% (v/v) human erythrocyte suspension, 2 h, 37 °C, 0.05–100 µM
Description: The hemolytic activity of the compounds was measured on human erythrocyte suspension. Cytotoxicity was assayed on murine BMDM. These two experiments are detailed in the Supplementary Information.
The hemolytic activity of the compounds was assayed as described previously. Briefly, peripheral blood from healthy volunteers was collected in vacuum tubes containing heparin (Li-heparin LH, VenoSafe) as anticoagulant. Tubes were centrifuged (1000 g, 5 min) and the pellet was washed three times with RPMI-1640 (culturing medium without phenol red). RPMI medium was added to the pellet to yield a final 2% (v/v) RBC suspension. […]
0.5%). […] After centrifugation (1000 g, 5 min), 100 µL of the supernatant was transferred to a flat-bottom microtiter plate and absorbance was measured at 414 nm using an ELISA plate reader (iEMS Reader, Labsystems). The percentage hemolysis was compared to a hemolytic control peptide (CM15, 200 μM) treated RBC and the concentration of peptide at which 50% hemolysis occurred (HC50 value) was determined. Compounds were measured in triplicates.
The cytotoxic effect of the compounds was measured on murine BMDMs. […] The precipitated purple crystals were dissolved in 100 μL DMSO, and after 10 minutes agitation, the absorbance was determined at λ = 540 nm and 620 nm using an ELISA plate reader (iEMS Reader, Labsystems). […]
1 Determined on 2% (v/v) human erythrocyte suspension. […]

[3] = Water solubility (observation); format: physicochemical

**Q.** Which intracellular localization (MM6 cells) does the source give for `CC[C@H](C)[C@H](NC(=O)CNC(=O)[C@H](Cc1ccccc1)NC(=O)[C@@H](N)Cc1ccccc1)C(=O)N[C@@H](CC(N)=O)C(=O)N[C@H](C(=O)N[C@H](C(=O)N1CCC[C@H]1C(=O)N[C@H](C(=O)N[C@@H](C)C(=O)N[C@@H](CSC1CC(=O)N(CCCCCC(=O)NCCCC[C@H](NC(=O)[C@@H](NC(=O)[C@H](CC(C)C)NC(=O)[C@H](CCCNC(=N)N)NC(=O)[C@@H](NC(=O)[C@H](CC(N)=O)NC(=O)[C@H](CC(N)=O)NC(=O)[C@H](C)NC(=O)[C@@H](NC(=O)[C@H](CC(C)C)NC(=O)[C@H](CCCCN)NC(C)=O)C(C)C)[C@@H](C)O)[C@@H](C)O)C(=O)N2CCC[C@H]2C(=O)N[C@@H](CCCCN)C(=O)NCC(=O)NCC(=O)N[C@@H](CC(C)C)C(=O)N[C@H](C(=O)N[C@@H](CC(=O)O)C(=O)N[C@H](C(=O)N[C@@H](C)C(=O)N2CCC[C@H]2C(=O)N[C@@H](Cc2c[nH]cn2)C(=O)N[C@@H](CCC(N)=O)C(=O)N[C@H](C(=O)N[C@@H](CO)C(=O)N[C@@H](CO)C(=O)N[C@H](C(N)=O)C(C)C)[C@@H](C)CC)[C@@H](C)CC)[C@@H](C)CC)C1=O)C(N)=O)[C@@H](C)CC)[C@@H](C)CC)[C@@H](C)O` (some centres unmarked) [A(P)I, KLVANNTRL-TKmal(FFGINTIPIAC)PKG-GLIDIAPHQISSV] (I: Ac-KLVANNTRLTKPKGGLIDIAPHQISSV-NH2 / II: H-FFGINTIPIAC-NH2; linker I:11-II:11 via X1; N-terminus and C-terminus assumed) here?
**A.** colocalization with lysosomes that was even more pronounced

**Q.** What about the “time course of internalization, in words” value (antigen presenting cells) of the same compound?
**A.** significantly slower than the internalization of pal-A(P)I

**Q.** And the “percentage of FITC-positive cells” value [1]?
**A.** 21.5%

**Q.** Which results are given for `CCCCCCCCCCCCCCCC(=O)N[C@@H](CCCCN)C(=O)N[C@@H](CC(C)C)C(=O)N[C@H](C(=O)N[C@@H](C)C(=O)N[C@@H](CC(N)=O)C(=O)N[C@@H](CC(N)=O)C(=O)N[C@H](C(=O)N[C@@H](CCCNC(=N)N)C(=O)N[C@@H](CC(C)C)C(=O)N[C@H](C(=O)N[C@@H](CCCCNC(=O)CCCCCN1C(=O)CC(SC[C@H](NC(=O)[C@H](C)NC(=O)[C@@H](NC(=O)[C@@H]2CCCN2C(=O)[C@@H](NC(=O)[C@@H](NC(=O)[C@H](CC(N)=O)NC(=O)[C@@H](NC(=O)CNC(=O)[C@H](Cc2ccccc2)NC(=O)[C@@H](N)Cc2ccccc2)[C@@H](C)CC)[C@@H](C)O)[C@@H](C)CC)[C@@H](C)CC)C(N)=O)C1=O)C(=O)N1CCC[C@H]1C(=O)N[C@@H](CCCCN)C(=O)NCC(=O)NCC(=O)N[C@@H](CC(C)C)C(=O)N[C@H](C(=O)N[C@@H](CC(=O)O)C(=O)N[C@H](C(=O)N[C@@H](C)C(=O)N1CCC[C@H]1C(=O)N[C@@H](Cc1c[nH]cn1)C(=O)N[C@@H](CCC(N)=O)C(=O)N[C@H](C(=O)N[C@@H](CO)C(=O)N[C@@H](CO)C(=O)N[C@H](C(N)=O)C(C)C)[C@@H](C)CC)[C@@H](C)CC)[C@@H](C)CC)[C@@H](C)O)[C@@H](C)O)C(C)C` (some centres unmarked) [pal-A(P)I, palmitoyl-KLVANNTRL-TKmal(FFGINTIPIAC)PKG-GLIDIAPHQISSV] (I: Palmitoyl-KLVANNTRLTKPKGGLIDIAPHQISSV-NH2 / II: H-FFGINTIPIAC-NH2; linker I:11-II:11 via X1)?
**A.** Hemolytic activity HC50 ± sd [2]: > 100 µM; water solubility [3]: very low water solubility
